DC50 data for 21 molecules are collected here from patent publication US20240287076A1, “COMPOUNDS FOR TARGETING DEGRADATION OF BRUTON'S TYROSINE KINASE” (BIOGEN MA INC., priority 2021, published 2024).

SMILES strings stand for the structures.

T1 sequence (Q06187 whole entry, the tested form may be a part): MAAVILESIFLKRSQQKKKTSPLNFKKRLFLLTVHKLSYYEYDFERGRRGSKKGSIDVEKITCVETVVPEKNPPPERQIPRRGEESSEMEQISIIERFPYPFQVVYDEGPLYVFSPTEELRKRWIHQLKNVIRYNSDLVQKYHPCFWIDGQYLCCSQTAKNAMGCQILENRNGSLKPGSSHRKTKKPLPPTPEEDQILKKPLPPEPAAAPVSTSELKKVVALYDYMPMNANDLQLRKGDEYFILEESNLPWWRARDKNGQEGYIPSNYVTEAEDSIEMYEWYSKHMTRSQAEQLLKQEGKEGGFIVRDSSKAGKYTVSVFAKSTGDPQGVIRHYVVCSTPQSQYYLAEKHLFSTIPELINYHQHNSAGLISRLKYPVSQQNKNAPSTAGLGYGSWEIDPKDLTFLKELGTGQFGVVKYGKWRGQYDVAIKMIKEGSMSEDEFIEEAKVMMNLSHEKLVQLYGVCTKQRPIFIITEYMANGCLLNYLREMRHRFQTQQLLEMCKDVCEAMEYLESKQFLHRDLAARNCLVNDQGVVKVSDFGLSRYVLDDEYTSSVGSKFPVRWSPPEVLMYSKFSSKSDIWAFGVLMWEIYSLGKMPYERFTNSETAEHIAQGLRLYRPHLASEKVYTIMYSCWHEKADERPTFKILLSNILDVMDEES

The assay has as its target T1, BTK (Homo sapiens, UniProt Q06187).
T1 construct: The GM01501.3 cell line endogenously expresses BTK with a HiBiT fusion tag via CRISPR knock-in at its C-terminal region; endogenous in cells; host or cells: GM01501.3 (GM01501 cells engineered by CRISPR knock-in of HiBiT at the BTK locus)
Description: BTK degradation assay using the HiBiT Method (Nano-Glo HiBiT Lytic Assay, GM01501.3 cells). The assay is classed as cell-based. The note with it: HiBiT Degradation on GM01501.3 BTK @ 6 hours. An outline of the steps:
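Degradation read-out: HiBiT luminescence after lytic reagent addition, giving DC50. Compounds dosed from 10 μM in 11 half-log steps (duplicate) onto GM01501.3 cells, whose endogenous BTK carries a C-terminal HiBiT knock-in tag; 6 h exposure, 37 °C, 5% CO2.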
A word on the DC50: it is the midpoint of the concentration-degradation curve. A lower DC50 goes with a more potent degrader. In turn, `Cc1cc(-c2ncnn3cc(-c4ccc(CN5C6CCC5CC(c5ccc(NC7CCC(=O)NC7=O)cc5)C6)cc4)cc23)ccc1CNC(=O)c1noc(C(C)(C)C)n1` (stereo not drawn) [Example 6, 5-tert-butyl-N-[[4-[6-[4-[[3-[4-[(2,6-dioxo-3-piperidyl)amino]phenyl]-8-azabicyclo[3.2.1]octan-8-yl]methyl]phenyl]pyrrolo[2,1-f][1,2,4]triazin-4-yl]-2-methyl-phenyl]methyl]-1,2,4-oxadiazole-3-carboxamide] had a half-maximal degradation concentration (DC50) of less than 0.1 µM.
As for `Cc1cc(-c2ncnn3cc(-c4ccc(C(=O)NCCc5cccc(NC6CCC(=O)NC6=O)c5)cc4)cc23)ccc1CNC(=O)c1noc(C(C)(C)C)n1` (stereo not drawn) [Example 196], the figure is less than 0.1 µM; as for `Cc1cc(-c2ncnn3cc(-c4ccc(CN5CCC(c6ccc(NC7CCC(=O)NC7=O)cc6)CC5)cc4)cc23)ccc1CNC(=O)c1cc2c(s1)CCCC2` (stereo not drawn) [Example 71, N— [[4-[6-[4-[[4-[4-[(2,6-dioxo-3-piperidyl)amino]phenyl]-1-piperidyl]methyl]phenyl]pyrrolo[2,1-f][1,2,4]triazin-4-yl]-2-methyl-phenyl]methyl]-4,5,6,7-tetrahydrobenzothiophene-2-carboxamide], less than 0.1 µM; as for `Cc1cc(-c2ncnn3cc(-c4ccc(CN5CCC(c6ccc(NC7CCC(=O)NC7=O)cc6)CC5)c(Cl)c4)cc23)ccc1CNC(=O)c1noc(C(C)(C)C)n1` (stereo not drawn) [Example 15, 5-tert-butyl-N-[[4-[6-[3-chloro-4-[[4-[4-[(2,6-dioxo-3-piperidyl)amino]phenyl]-1-piperidyl]methyl]phenyl]pyrrolo[2,1-f][1,2,4]triazin-4-yl]-2-methyl-phenyl]methyl]-1,2,4-oxadiazole-3-carboxamide], less than 0.1 µM.
With `Cc1cc(-c2ncnn3cc(N4CCN(C(=O)c5ncoc5CNC(=O)c5ccc(OC6CCC(=O)NC6=O)cc5)CC4)cc23)ccc1CNC(=O)c1noc(C(C)(C)C)n1` (stereo not drawn) [Example 189, 5-(tert-butyl)-N-(4-(6-(4-(5-((4-((2,6-dioxopiperidin-3-yl)oxy)benzamido)methyl)oxazole-4-carbonyl)piperazin-1-yl)pyrrolo[2,1-f][1,2,4]triazin-4-yl)-2-methylbenzyl)-1,2,4-oxadiazole-3-carboxamide] the figure was less than 0.1 µM; with `Cc1cc(-c2ncnn3cc(-c4ccc(CN5CCC(c6ccc(NC7CCC(=O)NC7=O)cc6)CC5)cc4)cc23)ccc1CNC(=O)COCC(C)(C)C` (stereo not drawn) [Example 70, 2-(2,2-dimethylpropoxy)-N-[[4-[6-[4-[[4-[4-[(2,6-dioxo-3-piperidyl)amino]phenyl]-1-piperidyl]methyl]phenyl]pyrrolo[2,1-f][1,2,4]triazin-4-yl]-2-methyl-phenyl]methyl]acetamide], less than 0.1 µM; with `CC(C)(C)c1nc(C(=O)NCc2ccc(-c3ncnn4cc(-c5ccc(CN6CCc7ccc(OC8CCC(=O)NC8=O)cc7C6)cn5)cc34)cc2F)no1` (stereo not drawn) [Example 226], less than 0.1 µM.
As for `Cc1cc(-c2ncnn3cc(-c4cnn(CCN5CCC(c6ccc7c(C8CCC(=O)NC8=O)nn(C)c7c6)CC5)c4)cc23)ccc1CNC(=O)c1noc(C(C)(C)C)n1` (stereo not drawn) [Example 299, 5-(tert-butyl)-N-(4-(6-(1-(2-(4-(3-(2,6-dioxopiperidin-3-yl)-1-methyl-1H-indazol-6-yl)piperidin-1-yl)ethyl)-1H-pyrazol-4-yl)pyrrolo[2,1-f][1,2,4]triazin-4-yl)-2-methylbenzyl)-1,2,4-oxadiazole-3-carboxamide], the figure is less than 0.1 µM; as for `Cc1cc(-c2ncnn3cc(-c4ccc(CN5CCC(c6ccc(NC7CCC(=O)NC7=O)cc6)CC5)cc4)cc23)ccc1CNC(=O)CCCC(C)(C)C` (stereo not drawn) [Example 74, N-[[4-[6-[4-[[4-[4-[(2,6-dioxo-3-piperidyl)amino]phenyl]-1-piperidyl]methyl]phenyl]pyrrolo[2,1-f][1,2,4]triazin-4-yl]-2-methyl-phenyl]methyl]-5,5-dimethyl-hexanamide], less than 0.1 µM; as for `Cc1cc(-c2ncnn3cc(N4CCN(C(=O)CC5CCCCN5C(=O)c5ccc(OC6CCC(=O)NC6=O)cc5)CC4)cc23)ccc1CNC(=O)c1noc(C(C)(C)C)n1` (stereo not drawn) [Example 176, 5-(tert-butyl)-N-(4-(6-(4-(2-(1-(4-((2,6-dioxopiperidin-3-yl)oxy)benzoyl)piperidin-2-yl)acetyl)piperazin-1-yl)pyrrolo[2,1-f][1,2,4]triazin-4-yl)-2-methylbenzyl)-1,2,4-oxadiazole-3-carboxamide], 0.1 to 0.5 µM.
Regarding `Cc1cc(-c2ncnn3cc(N4CCN(C(=O)CC5CC6(CO5)CN(C(=O)c5ccc(OC7CCC(=O)NC7=O)cc5)C6)CC4)cc23)ccc1CNC(=O)c1noc(C(C)(C)C)n1` (stereo not drawn) [Example 190, 5-(tert-butyl)-N-(4-(6-(4-(2-(2-(4-((2,6-dioxopiperidin-3-yl)oxy)benzoyl)-6-oxa-2-azaspiro[3.4]octan-7-yl)acetyl)piperazin-1-yl)pyrrolo[2,1-f][1,2,4]triazin-4-yl)-2-methylbenzyl)-1,2,4-oxadiazole-3-carboxamide], the DC50 was less than 0.1 µM.
`Cc1cc(-c2ncnn3cc(-c4ccc(CN5CCC(c6ccc(NC7CCC(=O)NC7=O)cc6)CC5)cn4)cc23)ccc1CNC(=O)c1noc(C(C)(C)C)n1` (stereo not drawn) [Example 241, 5-(tert-butyl)-N-(4-(6-(5-((4-(4-((2,6-dioxopiperidin-3-yl)amino)phenyl)piperidin-1-yl)methyl)pyridin-2-yl)pyrrolo[2,1-f][1,2,4]triazin-4-yl)-2-methylbenzyl)-1,2,4-oxadiazole-3-carboxamide] displayed a DC50 of less than 0.1 µM.
`Cc1cc(-c2ncnn3cc(-c4ccc(CN5CCC(c6ccc(NC7CCC(=O)NC7=O)cc6)CC5)cc4)cc23)ccc1CNC(=O)c1ccc(F)cc1` (stereo not drawn) [Example 64, N-[[4-[6-[4-[[4-[4-[(2,6-dioxo-3-piperidyl)amino]phenyl]-1-piperidyl]methyl]phenyl]pyrrolo[2,1-f][1,2,4]triazin-4-yl]-2-methyl-phenyl]methyl]-4-fluoro-benzamide] returned a DC50 of less than 0.1 µM.
As for `Cc1cc(-c2ncnn3cc(N4CCN(C(=O)c5ccc(CNC(=O)c6ccc(OC7CCC(=O)NC7=O)cc6)nc5)CC4)cc23)ccc1CNC(=O)c1noc(C(C)(C)C)n1` (stereo not drawn) [Example 179, 5-(tert-butyl)-N-(4-(6-(4-(6-((4-((2,6-dioxopiperidin-3-yl)oxy)benzamido)methyl)nicotinoyl)piperazin-1-yl)pyrrolo[2,1-f][1,2,4]triazin-4-y1)-2-methylbenzyl)-1,2,4-oxadiazole-3-carboxamide], the figure is 0.1 to 0.5 µM; as for `Cc1cc(-c2ncnn3cc(CCCCN4CCC(c5ccc(C6CCC(=O)NC6=O)cc5)CC4)cc23)ccc1CNC(=O)c1noc(C(C)(C)C)n1` (stereo not drawn) [Example 128, 5-tert-butyl-N-[[4-[6-[4-[4-[4-(2,6-dioxo-3-piperidyl)phenyl]-1-piperidyl]butyl]pyrrolo[2,1-f][1,2,4]triazin-4-yl]-2-methyl-phenyl]methyl]-1,2,4-oxadiazole-3-carboxamide], less than 0.1 µM.
Consider `CC(C)(C)c1nc(C(=O)NCc2ccc(-c3ncnn4cc(-c5ccc(CN6CCOCC6Cc6ccc(OC7CCC(=O)NC7=O)cc6)cn5)cc34)cc2F)no1` (stereo not drawn) [Example 238, 5-(tert-butyl)-N-(4-(6-(5-((3-(4-((2,6-dioxopiperidin-3-yl)oxy)benzyl)morpholino)methyl)pyridin-2-yl)pyrrolo [2,1-f][1,2,4]triazin-4-yl)-2-fluorobenzyl)-1,2,4-oxadiazole-3-carboxamide], for which the half-maximal degradation concentration (DC50) was less than 0.1 µM.
The molecule `Cc1cc(-c2ncnn3cc(N4CCN(C(=O)CCCCNC(=O)c5ccc(OC6CCC(=O)NC6=O)cc5)CC4)cc23)ccc1CNC(=O)c1noc(C(C)(C)C)n1` (stereo not drawn) [Example 173, 5-(tert-butyl)-N-(4-(6-(4-(5-(4-((2,6-dioxopiperidin-3-yl)oxy)benzamido)pentanoyl)piperazin-1-yl)pyrrolo[2,1-f][1,2,4]triazin-4-yl)-2-methylbenzyl)-1,2,4-oxadiazole-3-carboxamide] gave a DC50 of 0.1 to 0.5 µM.
As for `Cc1cc(-c2ncnn3cc(-c4ccc(CN5CCC(c6ccc(NC7CCC(=O)NC7=O)nc6)CC5)cc4)cc23)ccc1CNC(=O)c1noc(C(C)(C)C)n1` (stereo not drawn) [Example 13, 5-tert-butyl-N-[[4-[6-[4-[[4-[6-[(2,6-dioxo-3-piperidyl)amino]-3-pyridyl]-1-piperidyl]methyl]phenyl]pyrrolo[2,1-f][1,2,4]triazin-4-yl]-2-methyl-phenyl]methyl]-1,2,4-oxadiazole-3-carboxamide], the figure is less than 0.1 µM; as for `Cc1cc(-c2ncnn3cc(-c4ccc(CN5CCC(c6ccc(NC7CCC(=O)NC7=O)cc6C(F)(F)F)CC5)cc4)cc23)ccc1CNC(=O)c1noc(C(C)(C)C)n1` (stereo not drawn) [Example 27, 5-tert-butyl-N-[[4-[6-[4-[[4-[4-[(2,6-dioxo-3-piperidyl)amino]-2-(trifluoromethyl)phenyl]-1-piperidyl]methyl]phenyl]pyrrolo[2,1-f][1,2,4]triazin-4-yl]-2-methyl-phenyl]methyl]-1,2,4-oxadiazole-3-carboxamide], less than 0.1 µM; as for `Cc1cc(-c2ncnn3cc(N4CCN(C(=O)CCCCCCCCNC(=O)c5ccc(OC6CCC(=O)NC6=O)cc5)CC4)cc23)ccc1CNC(=O)c1noc(C(C)(C)C)n1` (stereo not drawn) [Example 180, 5-(tert-butyl)-N-(4-(6-(4-(9-(4-((2,6-dioxopiperidin-3-yl)oxy)benzamido)nonanoyl)piperazin-1-yl)pyrrolo[2,1-f][1,2,4]triazin-4-yl)-2-methylbenzyl)-1,2,4-oxadiazole-3-carboxamide], less than 0.1 µM.
As to `CC(C)(C)c1nc(C(=O)NCc2ccc(-c3ncnn4cc(-c5ccc(CN6CCN(c7ccc(C8CCC(=O)NC8=O)cn7)CC6)cc5)cc34)cc2F)no1` (stereo not drawn) [Example 36, 5-tert-butyl-N-[[4-[6-[4-[[4-[5-(2,6-dioxo-3-piperidyl)-2-pyridyl]piperazin-1-yl]methyl]phenyl]pyrrolo[2,1-f][1,2,4]triazin-4-yl]-2-fluoro-phenyl]methyl]-1,2,4-oxadiazole-3-carboxamide], the half-maximal degradation concentration (DC50) is less than 0.1 µM.
